# Assay results published in ChEMBL document CHEMBL1201862, “PubChem BioAssay data set” (2004).
# Active and inactive are the calls of the source.
# What was measured:
# [1] = molecular target: T1, Ubiquitin-conjugating enzyme E2 N (Homo sapiens, UniProt P61088); assay type: functional
# T1 sequence (P61088 whole entry): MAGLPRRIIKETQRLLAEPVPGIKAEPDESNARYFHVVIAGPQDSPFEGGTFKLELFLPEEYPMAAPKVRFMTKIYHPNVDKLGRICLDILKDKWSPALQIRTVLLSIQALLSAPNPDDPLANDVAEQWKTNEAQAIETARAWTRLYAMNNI
# Bcl-2-related protein A1 = molecular target: T2, Bcl-2-related protein A1 (Mus musculus, UniProt Q07440); assay type: functional;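 note: confirmatory dose–response counterscreen on Bfl-1, used to check hits from a UBC13 polyubiquitin inhibitor campaign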
# T2 sequence (Q07440 whole entry): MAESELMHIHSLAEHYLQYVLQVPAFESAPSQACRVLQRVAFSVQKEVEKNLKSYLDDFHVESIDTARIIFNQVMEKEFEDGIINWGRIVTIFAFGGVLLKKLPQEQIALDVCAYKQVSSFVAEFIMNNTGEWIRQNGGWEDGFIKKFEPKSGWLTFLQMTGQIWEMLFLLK
# [2] = molecular target: T1, Ubiquitin-conjugating enzyme E2 N; assay type: functional; remark: listed apart in the source
# [3] = molecular target: Peroxisome proliferator-activated receptor gamma/Nuclear receptor coactivator 1 (Homo sapiens, UniProt P37231); experiment: (§1) TR-FRET dose response biochemical High Throughput Screening assay for agonists of the steroid receptor coactivator 1 (SRC-1) recruitment by the peroxisome proliferator-activated receptor gamma (PPAR gamma): non-selective agonists. [Related pubchem assays (depositor defined):AID1300, AID1808, AID504735, AID631]; assay type: protein assay
# [4] = molecular target: Peroxisome proliferator-activated receptor gamma/Nuclear receptor coactivator 3 (Homo sapiens, UniProt P37231); experiment: as §1, with “3 (SRC-3)” for “1 (SRC-1)”, “assays: 1301 (Confirmation screen.), 1048 (Primary screen.)]” for “assays (depositor defined):AID1300, AID1808, AID504735, AID631]”; assay type: functional
# [5] = molecular target: Peroxisome proliferator-activated receptor gamma/Nuclear receptor coactivator 2 (Homo sapiens, UniProt P37231); experiment: TR-FRET dose response biochemical High Throughput Screening assay for agonists of the steroid receptor coactivator 2 (SRC-2) recruitment by the peroxisome proliferator-activated receptor gamma (PPAR gamma): non-selective agonists. [Related pubchem assays: 1297, 1032 ]; assay type: functional
# [6] = molecular target: DNA dC->dU-editing enzyme APOBEC-3G (Homo sapiens, UniProt Q9HC16); experiment: Dose Response confirmation of small molecule APOBEC3G DNA Deaminase Inhibitors via a fluorescence-based single-stranded DNA deaminase assay. [Related pubchem assays (depositor defined):AID493012, AID493028]; assay type: functional
# [7] = molecular target: T3, Dual specificity protein phosphatase 3 (Homo sapiens, UniProt P51452); experiment: VHR1 phosphatase inhibitors, primary screen, biochemical, absorbance, uHTS (AID 1654)
# [8] = molecular target: T4, Dual specificity protein phosphatase 6 (Rattus norvegicus, UniProt Q64346); experiment: MKP-3 phosphatase inhibitors, primary screen, biochemical, rat enzyme, in vitro (AID 425)
# T4 sequence (Q64346 whole entry): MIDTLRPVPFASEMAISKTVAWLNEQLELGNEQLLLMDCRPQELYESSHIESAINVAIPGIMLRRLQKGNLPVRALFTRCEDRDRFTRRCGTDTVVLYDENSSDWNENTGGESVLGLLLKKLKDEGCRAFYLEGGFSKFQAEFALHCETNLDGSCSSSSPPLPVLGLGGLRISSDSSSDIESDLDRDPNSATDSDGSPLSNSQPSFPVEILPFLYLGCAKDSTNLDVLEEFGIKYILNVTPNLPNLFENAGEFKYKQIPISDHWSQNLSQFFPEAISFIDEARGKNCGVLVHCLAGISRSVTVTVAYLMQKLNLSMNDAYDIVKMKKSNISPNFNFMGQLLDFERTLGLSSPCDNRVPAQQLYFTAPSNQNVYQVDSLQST
# [9] = molecular target: T3, Dual specificity protein phosphatase 3; experiment: VHR1 phosphatase inhibitors, biochemical (AID 1878)
# [10] = molecular target: T5, Alkaline phosphatase, tissue-nonspecific isozyme (Homo sapiens, UniProt P05186)
# T5 sequence (P05186 whole entry): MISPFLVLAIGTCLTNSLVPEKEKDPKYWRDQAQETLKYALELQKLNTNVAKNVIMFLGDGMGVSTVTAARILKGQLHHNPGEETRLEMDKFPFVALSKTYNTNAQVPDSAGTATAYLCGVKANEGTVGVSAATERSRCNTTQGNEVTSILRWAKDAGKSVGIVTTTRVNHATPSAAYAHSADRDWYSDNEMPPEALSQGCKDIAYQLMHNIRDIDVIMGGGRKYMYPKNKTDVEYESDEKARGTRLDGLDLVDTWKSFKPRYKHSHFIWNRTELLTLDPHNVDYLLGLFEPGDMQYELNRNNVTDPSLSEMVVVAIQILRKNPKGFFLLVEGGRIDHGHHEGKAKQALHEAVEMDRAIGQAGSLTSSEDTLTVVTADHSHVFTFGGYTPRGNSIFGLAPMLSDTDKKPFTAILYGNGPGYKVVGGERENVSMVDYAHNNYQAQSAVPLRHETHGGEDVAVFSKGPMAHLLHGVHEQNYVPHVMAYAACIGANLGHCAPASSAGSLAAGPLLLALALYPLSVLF
# [11] = molecular target: Lysosomal acid glucosylceramidase (Homo sapiens, UniProt P04062); experiment: Dose response cell-based high throughput screening assay to identify enhancers of beta-glucosidase activity. [Related pubchem assays: 784 ]; assay type: functional
# [12] = molecular target: 1-acylglycerol-3-phosphate O-acyltransferase ABHD5/Perilipin-5 (Homo sapiens, UniProt Q00G26+Q8WTS1); experiment: Luminescence-based biochemical high throughput dose response assay for inhibitors of the interaction of the lipase co-activator protein, abhydrolase domain containing 5 (ABHD5) with perilipin-5 (MLDP; PLIN5) (2K validation set). [Related pubchem assays (depositor defined):AID493035, AID493241]
# Perilipin-1/ABHD5 = Perilipin-1/ABHD5 (Homo sapiens, UniProt O60240+Q8WTS1); experiment: Luminescence-based biochemical high throughput dose response assay for inhibitors of the interaction of the lipase co-activator protein, abhydrolase domain containing 5 (ABHD5) with perilipin-1 (PLIN1) (2K validation set). [Related pubchem assays (depositor defined):AID493027, AID493057]
# Coagulation factor XII = Coagulation factor XII (Homo sapiens, UniProt P00748); assay type: functional;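 note: activated factor XIIa alpha cleaving a fluorogenic AMC peptide substrate; inhibitor potency from loss of enzyme activity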
# [13] = molecular target: T5, Alkaline phosphatase, tissue-nonspecific isozyme; experiment: human TNAP enzyme inhibitors, SAR follow-up, biochemical, luminescent, dose response (AID 1056)
# [14] = molecular target: Glyceraldehyde-3-phosphate dehydrogenase (Homo sapiens, UniProt P04406)
# [15] = molecular target: Alkaline phosphatase, placental type (Homo sapiens, UniProt P05187); experiment: PLAP enzyme inhibitors, confirmation, biochemical, luminescence (AID 1512); assay type: functional
# [16] = molecular target: Neurotensin receptor type 1 (Homo sapiens, UniProt P30989); assay type: functional;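 note: Image-based confirmatory dose-response assay measuring agonist activity at NTR1; NTR1-expressing U2OS osteosarcoma cells imaged for beta-arrestin GFP spot formation; agonist potency where compounds increase beta-arrestin recruitment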
# Neurotensin receptor type 1, sequence (P30989 whole entry): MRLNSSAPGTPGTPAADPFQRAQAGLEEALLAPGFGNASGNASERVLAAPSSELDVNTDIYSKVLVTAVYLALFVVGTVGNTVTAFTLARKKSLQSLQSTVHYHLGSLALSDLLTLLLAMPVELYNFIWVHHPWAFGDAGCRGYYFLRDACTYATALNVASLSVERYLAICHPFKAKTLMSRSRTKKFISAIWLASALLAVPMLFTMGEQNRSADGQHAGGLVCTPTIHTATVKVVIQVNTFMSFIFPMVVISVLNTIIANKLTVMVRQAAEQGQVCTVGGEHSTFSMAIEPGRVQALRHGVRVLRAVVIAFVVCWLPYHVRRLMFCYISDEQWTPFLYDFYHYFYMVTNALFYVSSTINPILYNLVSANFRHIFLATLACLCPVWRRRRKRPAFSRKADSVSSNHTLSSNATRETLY
# Coagulation factor XII, sequence (P00748 20-372 limits assumed): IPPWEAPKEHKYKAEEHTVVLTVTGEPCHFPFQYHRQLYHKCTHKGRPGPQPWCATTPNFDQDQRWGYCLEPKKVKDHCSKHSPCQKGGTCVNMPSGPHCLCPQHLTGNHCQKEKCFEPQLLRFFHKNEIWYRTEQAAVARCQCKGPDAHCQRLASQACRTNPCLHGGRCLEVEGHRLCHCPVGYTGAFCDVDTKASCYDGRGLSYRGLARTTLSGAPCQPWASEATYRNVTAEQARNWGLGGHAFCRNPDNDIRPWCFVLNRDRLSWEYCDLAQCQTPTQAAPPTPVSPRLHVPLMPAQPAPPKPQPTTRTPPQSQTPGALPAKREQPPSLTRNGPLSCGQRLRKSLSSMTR
# Coagulation factor XII, sequence (P00748 373-615 limits assumed): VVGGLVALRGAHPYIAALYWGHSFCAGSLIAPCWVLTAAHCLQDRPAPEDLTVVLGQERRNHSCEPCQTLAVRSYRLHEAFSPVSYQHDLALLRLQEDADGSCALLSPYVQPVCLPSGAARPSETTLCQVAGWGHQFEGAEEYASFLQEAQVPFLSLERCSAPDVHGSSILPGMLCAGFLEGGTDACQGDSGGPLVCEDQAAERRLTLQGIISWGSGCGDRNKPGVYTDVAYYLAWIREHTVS
# Perilipin-1/ABHD5, sequence (Q8WTS1 whole entry, the tested form may be a part): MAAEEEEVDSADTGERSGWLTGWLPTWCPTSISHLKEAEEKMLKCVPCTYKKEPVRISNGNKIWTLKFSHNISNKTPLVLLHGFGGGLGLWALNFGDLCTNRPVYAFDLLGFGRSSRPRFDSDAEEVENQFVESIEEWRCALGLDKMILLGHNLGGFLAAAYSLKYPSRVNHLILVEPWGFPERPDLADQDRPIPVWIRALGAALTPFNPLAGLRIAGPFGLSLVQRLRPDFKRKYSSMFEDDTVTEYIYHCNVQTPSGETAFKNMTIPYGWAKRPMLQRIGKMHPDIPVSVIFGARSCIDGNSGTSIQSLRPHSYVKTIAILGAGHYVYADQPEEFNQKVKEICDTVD
# Perilipin-1/ABHD5, sequence (O60240 whole entry, the tested form may be a part): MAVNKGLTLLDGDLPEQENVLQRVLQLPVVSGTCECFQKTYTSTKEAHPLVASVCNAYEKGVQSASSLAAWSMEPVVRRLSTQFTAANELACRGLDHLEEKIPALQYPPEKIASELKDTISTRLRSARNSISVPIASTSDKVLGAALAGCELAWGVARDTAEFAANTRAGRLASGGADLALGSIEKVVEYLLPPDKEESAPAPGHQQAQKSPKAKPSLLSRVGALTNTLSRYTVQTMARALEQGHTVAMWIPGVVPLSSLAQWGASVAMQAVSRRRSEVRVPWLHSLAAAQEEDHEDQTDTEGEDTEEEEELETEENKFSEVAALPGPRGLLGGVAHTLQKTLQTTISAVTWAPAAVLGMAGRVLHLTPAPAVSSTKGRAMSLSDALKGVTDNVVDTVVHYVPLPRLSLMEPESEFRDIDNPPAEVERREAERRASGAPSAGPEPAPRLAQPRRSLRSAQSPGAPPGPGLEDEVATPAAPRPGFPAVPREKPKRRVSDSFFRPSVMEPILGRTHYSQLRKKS
# 1-acylglycerol-3-phosphate O-acyltransferase ABHD5/Perilipin-5, sequence (Q00G26 whole entry, the tested form may be a part): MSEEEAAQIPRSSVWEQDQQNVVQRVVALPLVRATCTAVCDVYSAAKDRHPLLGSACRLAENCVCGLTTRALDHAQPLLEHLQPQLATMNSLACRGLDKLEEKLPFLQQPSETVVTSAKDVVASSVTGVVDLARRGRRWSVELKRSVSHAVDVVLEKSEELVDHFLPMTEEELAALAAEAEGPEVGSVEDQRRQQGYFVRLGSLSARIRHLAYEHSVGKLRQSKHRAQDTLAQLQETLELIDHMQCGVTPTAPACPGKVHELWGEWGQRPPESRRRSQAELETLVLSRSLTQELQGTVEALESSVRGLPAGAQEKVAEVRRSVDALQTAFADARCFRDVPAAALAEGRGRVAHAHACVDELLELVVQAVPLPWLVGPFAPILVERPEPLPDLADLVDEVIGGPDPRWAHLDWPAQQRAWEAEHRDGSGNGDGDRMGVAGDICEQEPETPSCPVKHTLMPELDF
# 1-acylglycerol-3-phosphate O-acyltransferase ABHD5/Perilipin-5, sequence (Q8WTS1 whole entry, the tested form may be a part): as the sequence (Q8WTS1 whole entry, the tested form may be a part) above
# T3 sequence (P51452 whole entry): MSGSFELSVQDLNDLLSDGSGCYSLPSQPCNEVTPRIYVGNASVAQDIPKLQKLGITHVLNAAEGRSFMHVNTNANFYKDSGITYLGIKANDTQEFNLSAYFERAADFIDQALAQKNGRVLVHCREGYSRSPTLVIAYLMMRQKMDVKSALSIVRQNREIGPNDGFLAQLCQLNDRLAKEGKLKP
# Glyceraldehyde-3-phosphate dehydrogenase, sequence (P04406 whole entry): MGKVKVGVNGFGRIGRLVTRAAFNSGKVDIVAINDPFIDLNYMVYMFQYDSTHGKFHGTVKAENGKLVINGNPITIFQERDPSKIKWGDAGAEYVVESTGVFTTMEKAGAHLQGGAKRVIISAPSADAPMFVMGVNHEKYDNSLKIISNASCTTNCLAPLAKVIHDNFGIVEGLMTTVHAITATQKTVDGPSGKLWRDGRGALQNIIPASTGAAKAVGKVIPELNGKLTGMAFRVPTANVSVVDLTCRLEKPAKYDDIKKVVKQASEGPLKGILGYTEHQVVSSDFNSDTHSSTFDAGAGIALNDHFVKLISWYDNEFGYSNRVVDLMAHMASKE
# Alkaline phosphatase, placental type, sequence (P05187 whole entry): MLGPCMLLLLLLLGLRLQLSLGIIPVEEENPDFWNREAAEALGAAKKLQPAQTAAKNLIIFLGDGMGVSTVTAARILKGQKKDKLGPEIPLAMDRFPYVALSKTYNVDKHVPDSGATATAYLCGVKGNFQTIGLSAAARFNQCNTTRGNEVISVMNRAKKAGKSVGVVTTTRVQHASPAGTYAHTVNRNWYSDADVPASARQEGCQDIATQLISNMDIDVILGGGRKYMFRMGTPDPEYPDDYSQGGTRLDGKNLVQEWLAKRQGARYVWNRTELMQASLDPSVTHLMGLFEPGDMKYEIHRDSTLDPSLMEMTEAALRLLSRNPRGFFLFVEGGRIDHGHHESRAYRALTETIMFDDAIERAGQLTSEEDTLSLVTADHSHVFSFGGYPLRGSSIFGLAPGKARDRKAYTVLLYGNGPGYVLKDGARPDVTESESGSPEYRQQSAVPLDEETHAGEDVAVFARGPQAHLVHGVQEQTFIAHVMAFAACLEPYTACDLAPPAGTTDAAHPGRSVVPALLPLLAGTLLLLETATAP
# Lysosomal acid glucosylceramidase, sequence (P04062 whole entry, the tested form may be a part): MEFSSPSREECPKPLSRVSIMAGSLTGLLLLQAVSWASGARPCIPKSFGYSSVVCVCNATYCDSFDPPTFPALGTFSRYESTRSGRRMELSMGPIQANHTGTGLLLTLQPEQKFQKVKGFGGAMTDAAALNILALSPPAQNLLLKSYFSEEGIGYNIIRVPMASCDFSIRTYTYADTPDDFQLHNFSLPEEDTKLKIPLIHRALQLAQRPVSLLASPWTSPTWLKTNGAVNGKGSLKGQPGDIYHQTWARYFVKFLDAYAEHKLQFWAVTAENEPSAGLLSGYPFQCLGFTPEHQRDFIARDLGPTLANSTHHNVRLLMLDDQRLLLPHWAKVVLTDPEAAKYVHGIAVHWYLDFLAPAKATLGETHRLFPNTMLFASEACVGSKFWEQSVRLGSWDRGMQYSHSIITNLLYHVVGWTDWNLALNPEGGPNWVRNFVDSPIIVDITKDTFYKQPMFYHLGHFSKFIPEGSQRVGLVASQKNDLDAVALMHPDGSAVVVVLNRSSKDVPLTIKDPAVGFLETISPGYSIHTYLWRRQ
# DNA dC->dU-editing enzyme APOBEC-3G, sequence (Q9HC16 whole entry): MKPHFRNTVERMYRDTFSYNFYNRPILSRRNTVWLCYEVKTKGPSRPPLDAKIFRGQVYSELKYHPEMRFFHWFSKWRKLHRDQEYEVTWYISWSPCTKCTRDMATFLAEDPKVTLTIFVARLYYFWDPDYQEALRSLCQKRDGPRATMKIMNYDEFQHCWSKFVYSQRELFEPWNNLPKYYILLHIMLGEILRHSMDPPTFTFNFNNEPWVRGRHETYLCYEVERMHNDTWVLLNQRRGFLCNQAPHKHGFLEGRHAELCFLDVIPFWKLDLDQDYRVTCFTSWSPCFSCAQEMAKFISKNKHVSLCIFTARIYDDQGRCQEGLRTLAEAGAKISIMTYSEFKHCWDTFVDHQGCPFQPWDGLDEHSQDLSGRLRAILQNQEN
smiles,measurement,setting,value
NC(=S)N=Nc1c(O)n(CCCl)c2ccccc12,IC50,[1],18 µM (active)
same,IC50,Bcl-2-related protein A1,> 20 µM (inactive)
same,IC50,[2],10.8 µM (active)
CCn1c(=O)cc(SCC(=O)N2CCN(C3CCCCC3)CC2)c2ccccc21,IC50,[1],14.5 µM (active)
same,EC50,[3],> 79.4 µM (inactive)
same,EC50,[4],> 79.4 µM (not active)
same,EC50,[5],> 79.4 µM (not active)
same,IC50,Bcl-2-related protein A1,> 20 µM (inactive)
same,IC50,[2],> 20 µM (inactive)
COC(=O)c1sc(NC(=O)c2cc(-c3ccccc3)nc3ccccc23)c(C#N)c1C,IC50,[6],28.6 µM (active)
same,IC50,[7],1.15 µM (active)
same,IC50,[8],> 158 µM (not active)
same,IC50,[9],2.08 µM (active)
CC1Cc2ccccc2N1C(=O)COc1nc2ccccc2nc1N1CCOCC1 (stereo not given),EC50,[10],> 100 µM (not active)
CCN(CC)c1nc2cc(OC)ccc2cc1C#N,EC50,[11],> 10 µM (not active)
COc1ccc2c(c1)C=CC1(O2)N(CCO)c2ccccc2C1(C)C (stereo not given),IC50,[12],6.97 µM (active)
same,IC50,Perilipin-1/ABHD5,7.1 µM (active)
COc1ccc(NC(NC(=O)c2cccnc2)C(Cl)(Cl)Cl)cc1 (stereo not given),IC50,Coagulation factor XII,> 50 µM (inactive)
COc1ccc(/C=C\C(=O)c2c(O)ccc3c(C)cc(=O)oc23)cc1OC,IC50,[12],8.91 µM (active)
same,IC50,Perilipin-1/ABHD5,4.46 µM (active)
CCOC(=O)c1sc(N(C)C(C)=O)nc1C,IC50,Coagulation factor XII,> 50 µM (inactive)
COc1ccccc1Cc1nc(N)nn1-c1ccccc1,IC50,[13],> 100 µM (inactive)
same,IC50,[14],> 100 µM (not active)
same,IC50,[15],> 100 µM (inactive)
COC(=O)c1ccc2c(=O)n(CCCCCC(=O)N3CCN(c4ccccc4)CC3)c(=O)[nH]c2c1,EC50,[16],17.6 µM (active)
